Literature values, collected in patent publication US20240315940A1, “Topical Nourishing/Antimicrobial Compositions” (Laboratory Skin Care, Inc., priority 2021, published 2024).

Tested on: bacteria, fungi, Pseudomonas aeruginosa, Pseudomonas capacia, Staphylococcus aureus, Escherichia coli, Candida albicans, Aspergillus niger, Salmonella …
Details: whole genera of microorganisms

SMILES: Oc1cc(Cl)ccc1Oc1ccc(Cl)cc1Cl [triclosan]
- effectiveness against microorganisms: effective
